Legend:
[1] = biological target: Mitogen-activated protein kinase 14 (Homo sapiens) (UniProt Q16539); assay: Inhibition of human p38-alpha assessed as residual activity at 0.1 uM relative to control
[2] = biological target: Protein kinase C alpha type (Homo sapiens) (UniProt P17252); assay: Inhibition of human PKCalpha assessed as residual activity at 1 uM relative to control
[3] = biological target: Casein kinase II subunit alpha (Homo sapiens) (UniProt P68400); assay: Inhibition of human CK2alpha1 assessed as residual activity at 0.1 uM relative to control
Chain of Casein kinase II subunit alpha (Homo sapiens) (P68400 whole entry, looked up): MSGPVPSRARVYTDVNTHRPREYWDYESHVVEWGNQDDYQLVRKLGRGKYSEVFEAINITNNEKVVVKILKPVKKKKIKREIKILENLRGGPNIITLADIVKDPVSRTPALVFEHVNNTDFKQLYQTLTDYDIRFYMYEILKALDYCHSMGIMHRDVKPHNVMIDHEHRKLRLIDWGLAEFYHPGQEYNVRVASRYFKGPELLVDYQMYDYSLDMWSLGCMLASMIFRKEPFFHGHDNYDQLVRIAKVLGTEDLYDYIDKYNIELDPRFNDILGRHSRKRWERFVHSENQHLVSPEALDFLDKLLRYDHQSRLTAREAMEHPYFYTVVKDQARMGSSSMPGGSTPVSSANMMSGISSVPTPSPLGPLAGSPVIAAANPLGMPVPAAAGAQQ

[4] = biological target: Tyrosine-protein kinase Lck (Homo sapiens) (UniProt P06239); assay: Inhibition of human LCK assessed as residual activity at 1 uM relative to control
Chain of Tyrosine-protein kinase Lck (Homo sapiens) (P06239 2-509 limits assumed): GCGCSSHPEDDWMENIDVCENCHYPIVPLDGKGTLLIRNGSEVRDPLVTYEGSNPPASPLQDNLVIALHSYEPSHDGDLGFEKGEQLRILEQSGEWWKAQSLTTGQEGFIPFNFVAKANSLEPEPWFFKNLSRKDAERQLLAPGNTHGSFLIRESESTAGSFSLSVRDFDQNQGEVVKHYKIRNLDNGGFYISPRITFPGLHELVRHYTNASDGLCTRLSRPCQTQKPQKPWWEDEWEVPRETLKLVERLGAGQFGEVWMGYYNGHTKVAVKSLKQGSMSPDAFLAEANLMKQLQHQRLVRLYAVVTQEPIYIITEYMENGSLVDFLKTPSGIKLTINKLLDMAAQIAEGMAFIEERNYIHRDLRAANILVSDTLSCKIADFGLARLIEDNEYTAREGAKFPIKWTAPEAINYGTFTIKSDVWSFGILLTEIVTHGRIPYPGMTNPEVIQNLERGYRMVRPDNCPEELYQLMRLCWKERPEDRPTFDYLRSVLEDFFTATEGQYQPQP

[5] = biological target: SRSF protein kinase 1 (Homo sapiens) (UniProt Q96SB4); assay: Inhibition of human SRPK1 assessed as residual activity at 0.1 uM relative to control
[6] = biological target: Mitogen-activated protein kinase 8 (Homo sapiens) (UniProt P45983); assay: Inhibition of human JNK1 assessed as residual activity at 0.1 uM relative to control
[7] = biological target: Serine/threonine-protein kinase pim-1 (Homo sapiens) (UniProt P11309); assay: Inhibition of human PIM1 assessed as residual activity at 0.1 uM relative to control
[8] = biological target: Ribosomal protein S6 kinase alpha-5 (Homo sapiens) (UniProt O75582); assay: Inhibition of human RPS6KA5 assessed as residual activity at 1 uM relative to control
Chain of Ribosomal protein S6 kinase alpha-5 (Homo sapiens) (O75582 whole entry, looked up): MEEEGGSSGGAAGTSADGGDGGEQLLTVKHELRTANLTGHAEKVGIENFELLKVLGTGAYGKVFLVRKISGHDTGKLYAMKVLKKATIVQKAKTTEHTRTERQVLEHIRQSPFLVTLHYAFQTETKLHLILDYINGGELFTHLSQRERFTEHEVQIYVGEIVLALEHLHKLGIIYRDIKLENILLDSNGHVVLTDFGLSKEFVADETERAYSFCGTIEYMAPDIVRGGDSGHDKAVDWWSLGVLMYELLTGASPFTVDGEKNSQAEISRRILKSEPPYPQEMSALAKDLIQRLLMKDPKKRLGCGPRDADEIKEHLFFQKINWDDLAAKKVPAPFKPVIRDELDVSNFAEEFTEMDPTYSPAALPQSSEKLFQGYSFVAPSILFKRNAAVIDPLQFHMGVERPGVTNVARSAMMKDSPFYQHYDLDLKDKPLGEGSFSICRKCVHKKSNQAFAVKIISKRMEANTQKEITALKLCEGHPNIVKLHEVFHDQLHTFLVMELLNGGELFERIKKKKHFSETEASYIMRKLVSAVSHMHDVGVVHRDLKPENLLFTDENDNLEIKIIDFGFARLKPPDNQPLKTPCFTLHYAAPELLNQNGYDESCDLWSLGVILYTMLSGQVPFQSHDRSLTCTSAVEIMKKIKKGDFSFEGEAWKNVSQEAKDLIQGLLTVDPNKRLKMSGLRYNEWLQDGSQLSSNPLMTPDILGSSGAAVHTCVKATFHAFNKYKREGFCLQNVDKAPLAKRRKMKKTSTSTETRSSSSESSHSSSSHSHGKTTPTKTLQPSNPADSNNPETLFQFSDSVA

[9] = biological target: 3-phosphoinositide-dependent protein kinase 1 (Homo sapiens) (UniProt O15530); assay: Inhibition of human PDK1 assessed as residual activity at 1 uM relative to control
Chain of 3-phosphoinositide-dependent protein kinase 1 (Homo sapiens) (O15530 whole entry, looked up): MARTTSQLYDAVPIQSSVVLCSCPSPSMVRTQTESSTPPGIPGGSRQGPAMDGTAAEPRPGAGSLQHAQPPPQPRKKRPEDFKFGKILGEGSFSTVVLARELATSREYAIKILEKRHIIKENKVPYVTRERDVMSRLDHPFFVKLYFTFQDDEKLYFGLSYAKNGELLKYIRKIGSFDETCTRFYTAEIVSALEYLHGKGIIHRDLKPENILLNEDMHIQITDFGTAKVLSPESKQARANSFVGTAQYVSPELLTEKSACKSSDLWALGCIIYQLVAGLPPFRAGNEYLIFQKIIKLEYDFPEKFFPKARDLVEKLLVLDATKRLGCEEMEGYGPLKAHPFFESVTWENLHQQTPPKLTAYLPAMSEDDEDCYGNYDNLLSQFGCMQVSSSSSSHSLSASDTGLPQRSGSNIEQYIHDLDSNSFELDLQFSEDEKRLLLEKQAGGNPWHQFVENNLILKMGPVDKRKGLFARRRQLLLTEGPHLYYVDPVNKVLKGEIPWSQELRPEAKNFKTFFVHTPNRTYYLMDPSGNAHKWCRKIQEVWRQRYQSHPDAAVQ

[10] = biological target: Serine/threonine-protein kinase PLK1 (Homo sapiens) (UniProt P53350); assay: Inhibition of human PLK1 assessed as residual activity at 0.1 uM relative to control
[11] = biological target: Serine/threonine-protein kinase PAK 4 (Homo sapiens) (UniProt O96013); assay: Inhibition of human PAK4 assessed as residual activity at 1 uM relative to control
[12] = biological target: Receptor-interacting serine/threonine-protein kinase 2 (Homo sapiens) (UniProt O43353); assay: Inhibition of human RIPK2 assessed as residual activity at 1 uM relative to control
Chain of Receptor-interacting serine/threonine-protein kinase 2 (Homo sapiens) (O43353 whole entry): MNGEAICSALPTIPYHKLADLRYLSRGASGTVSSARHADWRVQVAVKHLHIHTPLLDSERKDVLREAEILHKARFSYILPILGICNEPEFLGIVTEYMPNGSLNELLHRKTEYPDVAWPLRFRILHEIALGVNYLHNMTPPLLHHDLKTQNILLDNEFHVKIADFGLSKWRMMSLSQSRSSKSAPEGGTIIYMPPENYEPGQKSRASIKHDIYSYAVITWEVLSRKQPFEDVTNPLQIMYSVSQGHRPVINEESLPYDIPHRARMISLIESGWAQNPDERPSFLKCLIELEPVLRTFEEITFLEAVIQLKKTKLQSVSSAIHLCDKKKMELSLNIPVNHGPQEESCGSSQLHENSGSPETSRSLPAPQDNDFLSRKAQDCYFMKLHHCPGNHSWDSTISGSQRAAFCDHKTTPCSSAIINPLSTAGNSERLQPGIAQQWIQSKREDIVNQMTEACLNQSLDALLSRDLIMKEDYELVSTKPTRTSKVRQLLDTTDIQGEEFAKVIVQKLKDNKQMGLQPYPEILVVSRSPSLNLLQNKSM

[13] = biological target: Serine/threonine-protein kinase N2 (Homo sapiens) (UniProt Q16513); assay: Inhibition of human PRK2 assessed as residual activity at 1 uM relative to control
Chain of Serine/threonine-protein kinase N2 (Homo sapiens) (Q16513 whole entry, looked up): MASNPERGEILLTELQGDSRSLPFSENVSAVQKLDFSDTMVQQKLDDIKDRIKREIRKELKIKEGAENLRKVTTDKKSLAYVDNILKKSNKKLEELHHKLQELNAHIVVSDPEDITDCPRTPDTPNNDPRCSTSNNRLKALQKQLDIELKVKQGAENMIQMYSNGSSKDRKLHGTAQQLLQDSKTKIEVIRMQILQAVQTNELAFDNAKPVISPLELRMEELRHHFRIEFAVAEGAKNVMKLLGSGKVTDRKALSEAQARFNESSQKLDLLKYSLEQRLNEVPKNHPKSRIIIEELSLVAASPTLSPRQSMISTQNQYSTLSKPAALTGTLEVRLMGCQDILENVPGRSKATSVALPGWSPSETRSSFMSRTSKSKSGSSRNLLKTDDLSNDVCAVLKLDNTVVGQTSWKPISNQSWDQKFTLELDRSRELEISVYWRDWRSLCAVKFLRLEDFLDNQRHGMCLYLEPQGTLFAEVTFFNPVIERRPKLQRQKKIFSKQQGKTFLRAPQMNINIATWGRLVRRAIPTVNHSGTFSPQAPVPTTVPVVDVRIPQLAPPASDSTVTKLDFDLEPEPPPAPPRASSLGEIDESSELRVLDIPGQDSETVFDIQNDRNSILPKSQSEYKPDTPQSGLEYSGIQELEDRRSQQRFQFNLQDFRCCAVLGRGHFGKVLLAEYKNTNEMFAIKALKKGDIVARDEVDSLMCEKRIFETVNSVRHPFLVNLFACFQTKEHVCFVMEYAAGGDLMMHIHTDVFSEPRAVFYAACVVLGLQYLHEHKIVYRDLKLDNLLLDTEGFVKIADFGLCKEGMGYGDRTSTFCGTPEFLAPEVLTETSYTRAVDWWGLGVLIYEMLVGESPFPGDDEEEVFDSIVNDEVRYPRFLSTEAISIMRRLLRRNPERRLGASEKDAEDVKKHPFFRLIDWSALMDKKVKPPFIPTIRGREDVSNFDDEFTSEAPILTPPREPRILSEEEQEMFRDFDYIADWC

[14] = biological target: T1, Interleukin-1 receptor-associated kinase 4 (Homo sapiens) (UniProt Q9NWZ3); assay: Inhibition of human untagged IRAK4 assessed as residual activity at 0.1 uM relative to control
T1 sequence (whole entry): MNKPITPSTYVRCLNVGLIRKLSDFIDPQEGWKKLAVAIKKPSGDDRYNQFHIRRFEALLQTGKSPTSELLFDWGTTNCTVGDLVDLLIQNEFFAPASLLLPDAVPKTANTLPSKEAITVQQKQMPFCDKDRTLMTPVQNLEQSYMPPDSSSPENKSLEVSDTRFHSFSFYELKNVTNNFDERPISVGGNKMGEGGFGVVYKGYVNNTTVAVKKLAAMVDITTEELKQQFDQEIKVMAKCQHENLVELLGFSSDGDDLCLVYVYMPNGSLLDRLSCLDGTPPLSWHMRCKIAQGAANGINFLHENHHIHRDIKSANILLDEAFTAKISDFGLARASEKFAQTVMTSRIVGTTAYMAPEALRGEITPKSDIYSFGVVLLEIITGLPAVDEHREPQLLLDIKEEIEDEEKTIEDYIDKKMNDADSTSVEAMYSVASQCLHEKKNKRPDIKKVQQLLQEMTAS

[15] = biological target: Dual specificity tyrosine-phosphorylation-regulated kinase 1A (Homo sapiens) (UniProt Q13627); assay: Inhibition of human DYRK1A assessed as residual activity at 0.1 uM relative to control
[16] = biological target: T2, Mitogen-activated protein kinase kinase kinase 7 (Homo sapiens) (UniProt O43318); assay: Inhibition of human MAP3K7 assessed as residual activity at 1 uM relative to control
T2 sequence (whole entry): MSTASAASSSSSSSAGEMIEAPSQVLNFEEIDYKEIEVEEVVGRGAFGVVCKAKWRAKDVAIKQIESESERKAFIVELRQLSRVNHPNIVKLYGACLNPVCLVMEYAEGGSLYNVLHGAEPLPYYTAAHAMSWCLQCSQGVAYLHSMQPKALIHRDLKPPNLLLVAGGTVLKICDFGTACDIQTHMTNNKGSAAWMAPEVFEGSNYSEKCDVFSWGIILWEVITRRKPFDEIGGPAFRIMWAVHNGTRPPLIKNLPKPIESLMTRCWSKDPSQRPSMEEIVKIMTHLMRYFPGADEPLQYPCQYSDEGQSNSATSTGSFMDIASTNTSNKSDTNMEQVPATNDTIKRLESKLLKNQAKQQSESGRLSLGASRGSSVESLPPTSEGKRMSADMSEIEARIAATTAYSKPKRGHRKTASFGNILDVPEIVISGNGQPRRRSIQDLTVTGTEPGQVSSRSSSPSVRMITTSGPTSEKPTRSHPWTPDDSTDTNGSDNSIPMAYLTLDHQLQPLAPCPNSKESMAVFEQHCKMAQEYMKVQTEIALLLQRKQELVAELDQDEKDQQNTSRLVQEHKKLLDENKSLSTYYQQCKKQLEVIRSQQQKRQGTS

[17] = biological target: T2, Mitogen-activated protein kinase kinase kinase 7 (Homo sapiens); assay: Inhibition of human MAP3K7 assessed as residual activity at 0.1 uM relative to control
[18] = biological target: Tyrosine-protein kinase JAK2 (Homo sapiens) (UniProt O60674); assay: Inhibition of human JAK2 assessed as residual activity at 1 uM relative to control
Homo sapiens = species on record: Homo sapiens; assay: Inhibition of human PKA assessed as residual activity at 1 uM relative to control
[19] = biological target: Receptor-interacting serine/threonine-protein kinase 2 (Homo sapiens) (UniProt O43353); assay: Inhibition of human RIPK2 assessed as residual activity at 0.1 uM relative to control
[20] = biological target: Calcium/calmodulin-dependent protein kinase kinase 2 (Homo sapiens) (UniProt Q96RR4); assay: Inhibition of human CAMKK2 assessed as residual activity at 0.1 uM relative to control
[21] = biological target: Mitogen-activated protein kinase 14 (Homo sapiens) (UniProt Q16539); assay: Inhibition of human p38-alpha assessed as residual activity at 1 uM relative to control
[22] = biological target: Mitogen-activated protein kinase kinase kinase 11 (Homo sapiens) (UniProt Q16584); assay: Inhibition of human MAP3K11 assessed as residual activity at 0.1 uM relative to control

Chain of Mitogen-activated protein kinase 14 (Homo sapiens) (Q16539 whole entry): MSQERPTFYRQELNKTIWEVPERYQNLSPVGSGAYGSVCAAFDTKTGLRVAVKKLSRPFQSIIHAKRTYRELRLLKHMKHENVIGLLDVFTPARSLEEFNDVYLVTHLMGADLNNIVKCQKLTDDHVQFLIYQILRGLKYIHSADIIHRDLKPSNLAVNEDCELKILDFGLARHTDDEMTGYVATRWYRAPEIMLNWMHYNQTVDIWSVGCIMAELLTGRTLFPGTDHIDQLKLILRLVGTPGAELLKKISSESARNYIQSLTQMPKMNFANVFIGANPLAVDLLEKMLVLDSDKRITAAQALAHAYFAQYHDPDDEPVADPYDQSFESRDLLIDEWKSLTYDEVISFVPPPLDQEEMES

| Activity [1] [%] | Activity [2] [%] | Activity [3] [%] | Activity [4] [%] | Activity [5] [%] | Activity [6] [%] | Activity [7] [%] | Activity [8] [%] | Activity [9] [%] | Activity [10] [%] | Activity [11] [%] | Activity [12] [%] | Activity [13] [%] | Activity [14] [%] | Activity [15] [%] | Activity [16] [%] | Activity [17] [%] | Activity [18] [%] | Activity (Homo sapiens) [%] | Activity [19] [%] | Compound | also measured |
| --- | --- | --- | --- | --- | --- | --- | --- | --- | --- | --- | --- | --- | --- | --- | --- | --- | --- | --- | --- | --- | --- |
| 102 | 103 | 105 | 41 | 105 | 103 | 94 | 88 | 123 | 92 | 91 | 100 | 86 | 59 | 89 | 95 | 104 | 87 | 83 | 108 | CNS(=O)(=O)c1ccc2c(c1)/C(=C/c1cn(C)c3ccc(OC)cc13)C(=O)N2 | Activity [20]: 56%; Activity [21]: 99%; Activity [22]: 76% |
| 102 | 87 | 90 | 61 | 114 | 103 | 103 | 95 | 66 | 93 | 82 | 48 | 81 | 45 | 105 | 64 | 93 | 67 | 84 | 96 | COc1ccc2[nH]cc(/C=C3\C(=O)Nc4ccc(S(N)(=O)=O)cc43)c2c1 | Activity [20]: 83%; Activity [21]: 93%; Activity [22]: 66% |
| 95 | 95 | 98 | 64 | 111 | 103 | 104 | 108 | 84 | 83 | 99 | 95 | 94 | 91 | 98 | 88 | 106 | 72 | 98 | 104 | COc1ccc2c(c1)c(/C=C1\C(=O)Nc3ccc(S(=O)(=O)N(C)C)cc31)cn2C | Activity [20]: 76%; Activity [21]: 97%; Activity [22]: 84% |
| 97 | 103 | 97 | 33 | 109 | 105 | 102 | 107 | 83 | 93 | 90 | 89 | 89 | 68 | 101 | 92 | 101 | 55 | 103 | 94 | CN(C)S(=O)(=O)c1ccc2c(c1)/C(=C/c1cn(C)c3ccc(O)cc13)C(=O)N2 | Activity [20]: 73%; Activity [21]: 96%; Activity [22]: 80% |
| 107 | 94 | 102 | 50 | 116 | 121 | 105 | 93 | 70 | 102 | 78 | 84 | 78 | 6 | 122 | 63 | 85 | 67 | 87 | 102 | Cn1cc(/C=C2\C(=O)Nc3ccc(S(N)(=O)=O)cc32)c2ccccc21 | Activity [20]: 62%; Activity [21]: 104%; Activity [22]: 36% |
| 106 | 102 | 101 | 32 | 106 | 110 | 96 | 95 | 75 | 93 | 68 | 97 | 89 | 12 | 101 | 89 | 93 | 86 | 91 | 100 | COc1ccc2c(c1)c(/C=C1\C(=O)Nc3ccc(S(N)(=O)=O)cc31)cn2C | Activity [20]: 53%; Activity [21]: 100%; Activity [22]: 34% |

Reference: ChEMBL document CHEMBL4765228, “Indole-like Trk receptor antagonists” (Eur J Med Chem, 2016)
